From US10781158B2, “Methods of protecting an organ using tetrahydrocurcumin and phosphatidylcholine” (Bhupinder Singh, priority 2014, dated 2020)
Where “and” joins values, the source holds several entries; their conditions need not be identical. Identical values can stand only once.

Tests used:
[1] = system: 5/6 nephrectomy rats; experiment: Heart weight normalized to body weight (cardiac hypertrophy) in CKD rats; type: in vivo, Sprague-Dawley rats
Procedure: (§1) The experimental groups included healthy controls, CTL n=5, non-treated CKD, n=6 and CKD/THC n=6. At time of randomization to regular chow vs. THC diet, average blood urea nitrogen (BUN) was similar between the CKD groups (63.5+10.5 vs. 66+16.5 mg/dL).
(§2) After inducing chronic kidney disease, the rats were then treated with a pharmaceutical formulation comprising tetrahydrocurcumin, or with a pharmaceutical formulation that had both tetrahydrocurcumin and curcumin. The control group consisted of five rats, ([…]), the rats with CKD (rat number 4, 15, 20, 23, 25, 31), rats with chronic kidney disease treated with tetrahydrocurcumin (rat number 8, 11, 12, 14, 19, 21, 18 and 27) and rats treated with a combination of tetrahydrocurcumin and curcumin (rat number 1, 2, 16, 24, 28, 7, 17, 29 and 30). The measurements for the average BUN, blood pressure, body weight, delta BUN, Hgb, and Heart weight/body weight for the four groups are shown in FIGS. 2A-2G.

[2] = system: 5/6 nephrectomy rats; experiment: Galectin-3 (marker for cardiac fibrosis) in CKD rats; type: in vivo, Sprague-Dawley rats
Procedure: (§3) After 24 hours the rats were analyzed for proteinuria, Galectin-3, and C-reactive protein. Galectin-3 is a marker for cardiac fibrosis, and C-reactive protein is correlated with inflammation. Furthermore, a blood urea nitrogen test (BUN) was carried out with a creatinine and creatinine clearance blood test to evaluate the kidney functions and to look for nephrotoxicity.

[3] = system: 5/6 nephrectomy rats; experiment: Blood urea nitrogen (BUN), creatinine and creatinine clearance blood tests (kidney function) in CKD rats; type: in vivo, Sprague-Dawley rats; parameters: Change in BUN: unit not given here
Excerpt: (§4) For induction of CKD via nephron mass reduction, Sprague-Dawley rats underwent partial left nephrectomy followed by total right nephrectomy one week later. CKD rats were then randomized to 1% THC diet with polyenylphosphatidylcholine (PPC, 3 g/1000 kcal) vs. regular chow. […] Tail blood pressure measurement and 24-hour urine collection were done within a week of study termination. After 9 weeks on special diet, blood and kidneys were collected for biochemical and histologic analyses.
as §3
The blood urea nitrogen test (BUN) is primarily used with the creatinine test to evaluate kidney function and to help diagnose kidney disease. […] Therefore the pharmaceutical formulations comprising tetrahydrocurcumin with or without curcumin can be used to treat hypertension.

[4] = at acidic and at physiological pH; cited from earlier work
[5] = system: 5/6 nephrectomy rats; experiment: Tail blood pressure measurement in 5/6 nephrectomy CKD rats; type: in vivo, Sprague-Dawley rats; parameters: Diastolic tail BP: unit not given here
Excerpt: as §4
Rats were induced to have chronic kidney disease via nephron mass reduction, Sprague-Dawley rats underwent partial left nephrectomy followed by total right nephrectomy one week later. CKD rats were then randomized to 1% THC diet with polyenylphosphatidylcholine (PPC, 3 g/1000 kcal) vs. regular chow. The rats were then administered a dose of Buprenex, a narcotic, that can cause kidney damage.
as §2

[6] = previously shown; cited from earlier work
[7] = system: 5/6 nephrectomy rats; experiment: Plasma C-reactive protein (CRP, inflammation) in CKD rats; type: in vivo, Sprague-Dawley rats
Excerpt: as §4, §3

[8] = system: 5/6 nephrectomy rats; experiment: Kidney fibrosis, image quantitative analysis of Trichrome stained kidney slides in CKD rats; type: in vivo, Sprague-Dawley rats; settings: for Kidney slides Trichrome stain, Relative % area fibrosis: Table 10, relative to CTL Ave 1
Excerpt: as §4, §1

[9] = system: 5/6 nephrectomy rats; experiment: Proteinuria, 24-hour urine collection (total protein, urine protein/creatinine) in CKD rats; type: in vivo, Sprague-Dawley rats
Excerpt: as §4, §3

[10] = high dosages; cited from earlier work
[11] = Table 1, CKD/THC group n = 6, mean ± S.D.
[12] = Table 4, group AVE (THC 8 rats, THC/curcumin 9 rats)
[13] = group AVE, CKD rats treated with THC
[14] = individual rats (Rat#), CKD rats treated with THC
[15] = Table 7, individual CKD rats, incl. rats 22 and 26
[16] = Table 1, CKD/THC group n = 6, 1% THC diet with PPC, 9 weeks, mean ± S.D.

Structure (SMILES): COc1cc(CCC(=O)CC(=O)CCc2ccc(O)c(OC)c2)ccc1O [THC, tetrahydrocurcumin]
- Heart wet weight normalized to body weight [1, 11]: 3.89 ± 0.61 g/kg
- Heart wt [1, 12]: 1.068 g
- Heart wt/body wt [1, 12]: 4.16 g/kg
- Heart wt ([1]; Table 4, individual CKD rats): 1.169 g and 0.972 g and 1.165 g and 1.035 g and 0.854 g and 0.830 g and 1.530 g and 0.989 g
- Heart wt/body wt ([1]; Table 4, individual CKD rats): 4.68 g/kg and 3.61 g/kg and 4.59 g/kg and 4.33 g/kg and 3.42 g/kg and 3.22 g/kg and 5.63 g/kg and 3.80 g/kg
- Heart wt ([1]; Table 8, group AVE of 6 rats): 0.997 g
- Heart wt/body wt ([1]; Table 8, group AVE of 6 rats): 3.89 g/kg
- Heart wt ([1]; Table 8, individual CKD rats): 1.169 g and 0.972 g and 1.165 g and 0.854 g and 0.830 g and 0.989 g
- Heart wt/body wt ([1]; Table 8, individual CKD rats): 4.68 g/kg and 3.61 g/kg and 4.59 g/kg and 3.42 g/kg and 3.22 g/kg and 3.80 g/kg
- Galectin-3 ([2]; Table 3, individual CKD rats): 285.96 ng/mL and 450.48 ng/mL and 436.37 ng/mL and 768.79 ng/mL and 273.14 ng/mL and 182.38 ng/mL
- Galectin-3 ([2]; Table 6, group AVE): 442.95 ng/mL
- Galectin-3 ([2]; Table 6, individual CKD rats): 285.96 ng/mL and 450.48 ng/mL and 436.37 ng/mL and 768.79 ng/mL and 273.14 ng/mL
- Galectin-3 [2, 13]: 390.94 ng/mL
- Galectin-3 [2, 14]: 285.96 ng/mL and 450.48 ng/mL and 436.37 ng/mL
- BUN lower at termination compared to the non-treated CKD group ([3]; CKD/THC group, 1% THC diet with PPC, 9 weeks, significantly lower): about 40%
- BUN at termination [3, 11]: 52.1 ± 19.1 mg/dL
- Plasma creatinine [3, 11]: 1.04 ± 0.22 mg/dL
- Terminal BUN ([3]; Table 3, individual CKD rats): 44.9 mg/dL and 60.3 mg/dL and 80.6 mg/dL and 107.7 mg/dL and 69.9 mg/dL and 32.1 mg/dL and 32.6 mg/dL and 201.8 mg/dL and 62.3 mg/dL
- Terminal Cr ([3]; Table 3, individual CKD rats): 0.76 mg/dL and 1.28 mg/dL and 1.25 mg/dL and 1.48 mg/dL and 1.19 mg/dL and 1.13 mg/dL and 1.01 mg/dL and 2.30 mg/dL and 0.81 mg/dL
- CrCL ([3]; Table 3, individual CKD rats, creatinine clearance): 3.71 mL/min/kg and 1.90 mL/min/kg and 2.56 mL/min/kg and 2.27 mL/min/kg and 3.46 mL/min/kg and 2.91 mL/min/kg
- Change in BUN [3, 12]: −6.0
- Terminal BUN [3, 12]: 61.3 mg/dL
- Terminal BUN ([3]; Table 4, individual CKD rats): 44.9 mg/dL and 60.3 mg/dL and 80.6 mg/dL and 107.7 mg/dL and 32.1 mg/dL and 32.6 mg/dL and 69.9 mg/dL and 62.3 mg/dL
- Change in BUN ([3]; Table 4, individual CKD rats, terminal minus randomization): −13.6 and −6.2 and −15.9 and 31.6 and −28.7 and −14.7 and 3.4 and −4.3
- CrCL ([3]; Table 6, group AVE): 2.80 mL/min/kg
- Terminal Cr ([3]; Table 6, group AVE): 1.11 mg/dL
- Terminal Cr ([3]; Table 6, individual CKD rats): 0.76 mg/dL and 1.28 mg/dL and 1.25 mg/dL and 1.48 mg/dL and 1.13 mg/dL and 1.01 mg/dL and 1.19 mg/dL and 0.81 mg/dL
- CrCL ([3]; Table 6, individual CKD rats, creatinine clearance): 3.71 mL/min/kg and 1.90 mL/min/kg and 2.56 mL/min/kg and 2.27 mL/min/kg and 3.46 mL/min/kg and 2.91 mL/min/kg
- Terminal BUN [3, 15]: 44.9 mg/dL and 60.3 mg/dL and 80.6 mg/dL and 107.7 mg/dL and 69.9 mg/dL and 32.1 mg/dL and 32.6 mg/dL and 201.8 mg/dL and 62.3 mg/dL
- Terminal Cr [3, 15]: 0.8 mg/dL (2×) and 1.3 mg/dL and 1.2 mg/dL (2×) and 1.5 mg/dL and 1.1 mg/dL and 1.0 mg/dL and 2.3 mg/dL
- Change in BUN ([3]; Table 8, group AVE of 6 rats): −13.9
- Terminal BUN ([3]; Table 8, group AVE of 6 rats): 52.1 mg/dL
- Change in BUN ([3]; Table 8, individual CKD rats): −13.6 and −6.2 and −15.9 and −28.7 and −14.7 and −4.3
- Terminal BUN ([3]; Table 8, individual CKD rats): 44.9 mg/dL and 60.3 mg/dL and 80.6 mg/dL and 32.1 mg/dL and 32.6 mg/dL and 62.3 mg/dL
- CrCL [3, 13]: 2.91 mL/min/kg
- Terminal sCr [3, 13]: 1.04 mg/dL
- CrCL [3, 14]: 3.71 mL/min/kg and 1.90 mL/min/kg and 2.56 mL/min/kg and 3.46 mL/min/kg and 2.91 mL/min/kg
- Solubility in water [4]: poor solubility
- Diastolic blood pressure [5, 16]: 75.8 ± 12.8 mmHg
- Systolic blood pressure [5, 16]: 116.5 ± 11.1 mmHg
- Diastolic tail BP ([5]; Table 5, group AVE): 76.3
- Systolic tail BP ([5]; Table 5, group AVE): 117.4 mmHg
- Diastolic tail BP ([5]; Table 5, individual CKD rats): 95 and 69 and 60 and 78 and 81 and 67 and 77 and 83
- Systolic tail BP ([5]; Table 5, individual CKD rats): 132 mmHg and 103 mmHg and 124 mmHg (2×) and 116 mmHg and 113 mmHg and 106 mmHg and 121 mmHg
- Diastolic tail BP [5, 13]: 75.8
- Diastolic tail BP ([5]; individual rats (Rat#), 5/6 nephrectomy CKD rats treated with THC): 95 and 69 and 60 and 81 and 67 and 83
- Increase of plasma levels on co-administration with a lipid carrier such as PPC [6]: 5 fold
- CRP ([7]; Table 3, individual CKD rats): 2.53 mg/mL and 3.22 mg/mL and 2.15 mg/mL and 4.38 mg/mL and 2.70 mg/mL and 3.43 mg/mL and 2.36 mg/mL and 1.19 mg/mL and 2.57 mg/mL
- CRP ([7]; Table 6, group AVE): 2.92 mg/mL
- CRP ([7]; Table 6, individual CKD rats): 2.53 mg/mL and 3.22 mg/mL and 2.15 mg/mL and 4.38 mg/mL and 3.43 mg/mL and 2.36 mg/mL and 2.70 mg/mL and 2.57 mg/mL
- CRP [7, 13]: 2.71 mg/mL
- CRP [7, 14]: 2.53 mg/mL and 3.22 mg/mL and 2.15 mg/mL and 3.43 mg/mL and 2.36 mg/mL and 2.57 mg/mL
- Kidney fibrosis from Trichrome stained slides: relative % area ([8]; Table 1, CKD/THC group n = 6, mean ± S.D., CTL = 1): 1.16 ± 0.24 relative % area
- Kidney slides Trichrome stain, Relative % area fibrosis ([8]; group Ave): 1.1551
- Kidney slides Trichrome stain, Relative % area fibrosis ([8]; individual kidneys): 1.396 and 1.321 and 1.345 and 0.8958 and 1.146 and 0.8269
- Proteinuria decreased compared to non-treated CKD animals ([9]; CKD/THC group, significantly decreased): ~50%
- Urine protein/creatinine [9, 11]: 47.91 ± 15.42 mg/g
- 24 hr total proteinuria ([9]; Table 3, individual CKD rats): 638.5 mg and 612.7 mg and 355.6 mg and 537.7 mg and 613.8 mg and 410.1 mg
- Uprot/Cr ratio ([9]; Table 3, individual CKD rats): 63.18 mg/g and 64.86 mg/g and 30.56 mg/g and 46.32 mg/g and 43.50 mg/g and 37.43 mg/g
- 24 hr total proteinuria ([9]; Table 5, group AVE): 528.07 mg
- 24 hr total proteinuria ([9]; Table 5, individual CKD rats): 638.50 mg and 612.75 mg and 355.61 mg and 537.69 mg and 613.82 mg and 410.08 mg
- 24 hr total proteinuria [9, 13]: 526.15 mg
- Uprot/Cr ratio [9, 13]: 47.91 mg/g
- 24 hr total proteinuria [9, 14]: 638.50 mg and 612.75 mg and 355.61 mg and 613.82 mg and 410.08 mg
- Uprot/Cr ratio [9, 14]: 63.18 mg/g and 64.86 mg/g and 30.56 mg/g and 43.50 mg/g and 37.43 mg/g
- Dosage at which relatively safe [10]: 80 mgs/kg body weight
